One test has as its system eiPSC spheroids. The test is described as follows: Teratoma assay of eiPSC spheroids injected subcutaneously into NOD/SCID mice. In kind it is in vivo. The settings on record: eiPSC spheroids from 1 and 10 μM RI groups, day 0, s.c. in NOD/SCID mice. The method, then: To test the pluripotency of the cells in the 3D iPSC spheroids in vivo with the teratoma assay, the eiPSC spheroids were directly injected subcutaneously (s.c.) into the dorsal rear flank of severe combined immunodeficient mice (NOD.CB17-scid). A total of 2×10^6 cells in 300 μL of PBS was injected into each mouse (age: 5 weeks, and 5 mice per group). After 5 weeks, the mice were sacrificed, and the resulting teratoma were collected and fixed in 4% paraformaldehyde (PFA) for 3 days. Afterward, the samples were cut into small pieces of ˜0.5 cm^3, embedded in paraffin, and sectioned into slices of 5 μm thick. The slices were stained with hematoxylin and eosin (H&E) and imaged with a Zeiss LSM 710 microscope. All animal studies were approved by the Institutional Animal Care and Use Committee (IACUC, #R-MAY-18-24) at the University of Maryland, College Park.

The test system of the next test is human eiPSCs. The test is described as follows: 2D re-plating of 3D iPSC spheroids on Matrigel (colony morphology, immunostaining). Type of test: cell-based. The settings on record: day 0 spheroids cultured 2 days in 2D. The method, then:
To further confirm the aforementioned difference in morphology and protein expression between the 1 and 10 μM RI groups, the 3D iPSC spheroids obtained with 0, 1, and 10 μM RI concentrations collected on day 0 (i.e., after 4-day culture in 3D) were plated on the 2D surface coated with Matrigel in Petri dish (i.e., under conventional 2D culture) and cultured for 2 days to observe the cell morphology.

A further test relates to IMR90-1 human iPSCs. The test is described as follows: Immunostaining of IMR90-1 cardiac spheroids. The settings on record: day 12.5. In kind it is cell-based. The method, then:
The iPSC spheroids and the iPSC-derived Cardiac spheroids were fixed in 4% PFA in 1×PBS at 4° C. overnight. The fixed spheroids were incubated sequentially in 10% and 15% sucrose solutions in saline for 4 h, respectively. Afterward, the spheroids were put in a plastic box and embedded in OCT for cryosectioning. Slices of the spheroids of 10 μm thick were obtained by cutting the frozen sample on a Leica cryostat platform and then immediately attached onto the Leica Apex high adhesive glass slides.
For immunostaining, the slides were gently rinsed twice with 1×PBS to remove the OCT and then incubated with 0.1% Tween-20 and 5% normal goat serum in 1×PBS for 1 h at room temperature (RT) to block non-specific bindings. Later, the samples were incubated with primary antibodies at 4° C. overnight. The dilution and product information of the primary antibodies were as follows: OCT-4 (1:500 dilution, Cell Signaling Technologies), NANOG (1:500 dilution, Cell Signaling Technologies), SSEA-4 (1:500 dilution, Cell Signaling Technologies), cTnT (1:500 dilution, Cell Signaling Technologies), CONNEXIN-43 (CX-43, 1:400 dilution, Santa Cruz Biotechnology), DESMIN (1:500 dilution, Santa Cruz Biotechnology), α-ACTININ (1:500 dilution; Santa Cruz Biotechnology), BRACHYURY (1:500; Santa Cruz Biotechnology), NKX2.5 (1:500; Santa Cruz Biotechnology), NESTIN (1:500; R & D Systems), MUSASHI-1 (1:500; R & D Systems), and TUJ-1 (1:500; R & D Systems). Afterward, the samples were rinsed with 1×PBS thrice and then incubated with the associated secondary antibodies (goat anti-rabbit IgG FITC and goat-anti-mouse IgG PE, Invitrogen) in 1×PBS for 1.5 h at RT. Lastly, the samples were rinsed with 1 ml of 1×PBS for 3 min and the nuclei were stained with 1 μg/ml DAPI solution for 5 min at RT. The samples were imaged with the Zeiss LSM 710 microscope.

The structures appear in SMILES notation.

For `C[C@@H](N)[C@H]1CC[C@H](C(=O)Nc2ccncc2)CC1.Cl.Cl` (relative stereo) [RI, (+)-(R)-trans-4-(1-aminoethyl)-N-(4-pyridyl) cyclo-hexanecarboxamide dihydrochloride], the “teratoma formation (pluripotency in vivo)” value with eiPSC spheroids is “forming teratomas consisting of tissues from all the three germ layers”. In the test with human eiPSCs (1 μM RI), the “immunostaining of neural and pluripotency markers in re-plated colonies” value was “positive expression of OCT-4 and NANOG and were negative for NESTIN and TUJ-1”; the “morphology of re-plated eiPSC colonies” value was “typical with tightly packed cells”. Further, in the test with human eiPSCs (10 μM RI), the “immunostaining of neural and pluripotency markers in re-plated colonies” value is “positive staining of neural markers (NESTIN and TUJ-1) and weakened/no staining of pluripotency markers (OCT-4 and NANOG)”; the “morphology of re-plated eiPSC colonies” value is “more loosely packed”. Also, in the test with IMR90-1 human iPSCs (1 μM RI), the “expression of cTnT and CX-43” value was “high with an evident expression of the gap junction protein CX-43”; the “immunostaining of neural markers MUSASHI and TUJ-1” value was “negligible”. In addition, in the test with IMR90-1 human iPSCs (10 μM RI), the “expression of cTnT and CX-43” value is “low and negligible, respectively”; the “immunostaining of neural markers MUSASHI and TUJ-1” value is “existence of MUSASHI- and TUJ-1-positive cells”.

For the origin of these results see patent US20230035127A1, “CULTURE AND DIFFERENTIATION OF PLURIPOTENT STEM CELLS” (University of Maryland, College Park, priority 2021, published 2023).
